Experimental data published in PubChem BioAssay AID276 (DTP/NCI, 2004).
Where “and” joins values, the source holds several entries; their conditions need not be identical. Equal values may be shown once. Toxic doses and inconclusive results are not listed.

Test system: B6C3F1 mice, Lewis lung carcinoma iv, survival T/C
Assay: NCI In Vivo Anticancer Drug Screen. Data for tumor model Lewis Lung Carcinoma (intravenous) in B6C3F1 mice
Conditions: endpoint: median survival time, schedule: Q01DX009 (ip), higher = longer survival
Procedure, shortened: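 Read-out is survival, expressed as the treated-group measurement over the vehicle control-group measurement. Animals bore a transplantable tumor and were given compound.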

[1] = dose: 50.0 mg/kg/injection, vehicle: saline
[2] = dose: 100.0 mg/kg/injection, vehicle: saline
[3] = dose: 400.0 mg/kg/injection, vehicle: saline
[4] = dose: 25.0 mg/kg/injection, vehicle: saline with Tween-80
[5] = dose: 50.0 mg/kg/injection, vehicle: saline with Tween-80
[6] = dose: 100.0 mg/kg/injection, vehicle: saline with Tween-80
[7] = dose: 400.0 mg/kg/injection, vehicle: saline with Tween-80
[8] = dose: 6.25 mg/kg/injection, vehicle: saline with Tween-80
[9] = dose: 12.5 mg/kg/injection, vehicle: saline with Tween-80
[10] = dose: 200.0 mg/kg/injection, vehicle: saline with Tween-80
[11] = dose: 50.0 mg/kg/injection, vehicle: Klucel (hydroxypropylcellulose) (HPC)
[12] = dose: 100.0 mg/kg/injection, vehicle: Klucel (hydroxypropylcellulose) (HPC)
[13] = dose: 12.5 mg/kg/injection, vehicle: saline
[14] = dose: 25.0 mg/kg/injection, vehicle: saline
[15] = dose: 200.0 mg/kg/injection, vehicle: saline
[16] = dose: 12.5 mg/kg/injection, vehicle: Klucel (hydroxypropylcellulose) (HPC)
[17] = dose: 6.25 mg/kg/injection, vehicle: Klucel (hydroxypropylcellulose) (HPC)
[18] = dose: 25.0 mg/kg/injection, vehicle: Klucel (hydroxypropylcellulose) (HPC)

With CO[C@@]12[C@@H]3N[C@@H]3CN1C1=C(C(=O)C(NCC3CCCO3)=C(C)C1=O)[C@@H]2COC(N)=O (some centres undefined) the T/C (dose: 1.5 mg/kg/injection, vehicle: distilled water + Tween-80) was 104 % of control, the T/C (dose: 3.0 mg/kg/injection, vehicle: distilled water + Tween-80) was 104 % of control and the T/C (dose: 6.0 mg/kg/injection, vehicle: distilled water + Tween-80) was 116 % of control.
O=c1n[n+]([O-])ccn1C1OC(CO)C(O)C1O (centres undefined) was tested, and the T/C [1] was 117 % of control, the T/C [2] was 107 % of control and the T/C [3] was 89 % of control.
With C[Si](C)(CCl)N[Si](C)(C)CCl the T/C [4] was 104 % of control, the T/C [5] was 99 % of control and the T/C [6] was 107 % of control. The T/C [7] was 105 % of control.
In the case of NCCCC(N)(C(=O)O)C(F)F (centres undefined), the T/C (dose: 50.0 mg/kg/injection, vehicle: distilled water + alcohol) was 100 % of control, the T/C (dose: 100.0 mg/kg/injection, vehicle: distilled water + alcohol) was 104 % of control and the T/C (dose: 200.0 mg/kg/injection, vehicle: distilled water + alcohol) was 105 % of control. The T/C (dose: 400.0 mg/kg/injection, vehicle: distilled water + alcohol) was 103 % of control and the T/C (dose: 800.0 mg/kg/injection, vehicle: distilled water + alcohol) was 96 % of control.
With CC1c2ccccc2CC(CCN(C)C)c2ccccc21 (centres undefined) the T/C [8] was 100 % of control, the T/C [9] was 101 % of control and the T/C [4] was 107 % of control. For the same molecule, the T/C [5] was 96 % of control.
For COc1cccc(C2NC(=O)c3c(n[nH]c3N)S2)c1O (centres undefined), the T/C [9] was 114 % of control, the T/C [4] was 102 % of control and the T/C [5] was 122 % of control. The T/C [6] was 99 % of control and the T/C [10] was 109 % of control.
For C1OC1C1CO1 (centres undefined), the T/C (dose: 1.25 mg/kg/injection, vehicle: suspension in saline) was 101 % of control, the T/C (dose: 2.5 mg/kg/injection, vehicle: suspension in saline) was 112 % of control and the T/C (dose: 5.0 mg/kg/injection, vehicle: suspension in saline) was 105 % of control. For the same molecule, the T/C (dose: 10.0 mg/kg/injection, vehicle: suspension in saline) was 99 % of control, the T/C (dose: 20.0 mg/kg/injection, vehicle: suspension in saline) was 101 % of control and the T/C (dose: 40.0 mg/kg/injection, vehicle: suspension in saline) was 108 % of control.
In the case of BrCCC1(CCBr)CCCCC1, the T/C (dose: 50.0 mg/kg/injection, vehicle: water) was 104 % of control, the T/C (dose: 100.0 mg/kg/injection, vehicle: water) was 103 % of control and the T/C (dose: 200.0 mg/kg/injection, vehicle: water) was 98 % of control. For the same molecule, the T/C (dose: 400.0 mg/kg/injection, vehicle: water) was 96 % of control.
With CCCCOCN(COCCCC)C12CC3CC(CC(C3)C1)C2 the T/C [9] was 101 % of control, the T/C [4] was 111 % of control and the T/C [5] was 97 % of control. For the same molecule, the T/C [6] was 106 % of control and the T/C [10] was 100 % of control.
For O=C(C/C(=N\C(=S)Nc1cc(C(F)(F)F)ccc1Cl)NO)N1CCCC1, the T/C [4] was 98 % of control and 101 % of control, the T/C [5] was 99 % of control and 105 % of control and the T/C [6] was 101 % of control and 111 % of control. The T/C [10] was 99 % of control.
For COc1cccc2c1C(=O)c1c(O)c3c(c(O)c1C2=O)C[C@@](O)(C(C)=O)C[C@@H]3OC1CC(N(Cc2ccccc2)Cc2ccccc2)C(O)C(C)O1 (some centres undefined), the T/C (dose: 1.5 mg/kg/injection, vehicle: saline with Tween-80) was 104 % of control, the T/C (dose: 1.5 mg/kg/injection, vehicle: water) was 96 % of control and the T/C (dose: 1.56 mg/kg/injection, vehicle: saline with Tween-80) was 103 % of control. The T/C (dose: 3.0 mg/kg/injection, vehicle: saline with Tween-80) was 112 % of control, the T/C (dose: 3.0 mg/kg/injection, vehicle: water) was 99 % of control and the T/C (dose: 3.12 mg/kg/injection, vehicle: saline with Tween-80) was 114 % of control. For the same molecule, the T/C (dose: 6.0 mg/kg/injection, vehicle: saline with Tween-80) was 113 % of control and the T/C [8] was 112 % of control and 116 % of control.
In the case of CC1C=NNC1=O (centres undefined), the T/C [11] was 103 % of control, the T/C [12] was 103 % of control and the T/C (dose: 200.0 mg/kg/injection, vehicle: Klucel (hydroxypropylcellulose) (HPC)) was 113 % of control. The T/C (dose: 400.0 mg/kg/injection, vehicle: Klucel (hydroxypropylcellulose) (HPC)) was 121 % of control and the T/C (dose: 800.0 mg/kg/injection, vehicle: Klucel (hydroxypropylcellulose) (HPC)) was 118 % of control.
C[Si](C)(C)O/C=C1/CCOC1=O was tested, and the T/C [13] was 93 % of control, the T/C [14] was 101 % of control and the T/C [1] was 94 % of control. For the same molecule, the T/C [2] was 97 % of control, the T/C [15] was 91 % of control and the T/C [3] was 94 % of control.
With C[C@]12CC[C@H](O)CC1=CC[C@@H]1[C@@H]2CC[C@]2(C)C(=O)CC[C@@H]12 the T/C [4] was 105 % of control, the T/C [5] was 100 % of control and the T/C [6] was 101 % of control. The T/C [10] was 94 % of control and the T/C [7] was 99 % of control.
CCc1ncnc2cc(OCC3CO3)c(OC)cc12 (centres undefined) was tested, and the T/C (dose: 3.13 mg/kg/injection, vehicle: saline) was 98 % of control, the T/C (dose: 6.25 mg/kg/injection, vehicle: saline) was 100 % of control and 106 % of control and the T/C [13] was 102 % of control and 104 % of control. The T/C [14] was 117 % of control and 118 % of control.
With CC[C@@]1(O)C(=O)OCc2c1cc1n(c2=O)Cc2cc3cc(O)ccc3nc2-1 the T/C (dose: 0.18 mg/kg/injection, vehicle: saline) was 106 % of control, the T/C (dose: 0.37 mg/kg/injection, vehicle: saline) was 104 % of control and the T/C (dose: 0.75 mg/kg/injection, vehicle: saline) was 102 % of control. The T/C (dose: 1.5 mg/kg/injection, vehicle: saline) was 103 % of control and the T/C (dose: 3.0 mg/kg/injection, vehicle: saline) was 110 % of control.
For COC(=O)c1ccoc1, the T/C [13] was 100 % of control, the T/C [14] was 111 % of control and the T/C [1] was 97 % of control. For the same molecule, the T/C [2] was 108 % of control and the T/C [15] was 117 % of control.
For CN(C)/N=N/c1nc[nH]c1C(N)=O, the T/C [16] was 229 % of control.
C=C1C(=O)C2=CC1CCC(=O)C1(C)CCC(OC(C)=O)C(C)(C)C1CC2O (centres undefined) was tested, and the T/C (dose: 3.75 mg/kg/injection, vehicle: Klucel (hydroxypropylcellulose) (HPC)) was 93 % of control, the T/C (dose: 7.5 mg/kg/injection, vehicle: Klucel (hydroxypropylcellulose) (HPC)) was 110 % of control and the T/C (dose: 15.0 mg/kg/injection, vehicle: Klucel (hydroxypropylcellulose) (HPC)) was 98 % of control. The T/C (dose: 30.0 mg/kg/injection, vehicle: Klucel (hydroxypropylcellulose) (HPC)) was 96 % of control and the T/C (dose: 60.0 mg/kg/injection, vehicle: Klucel (hydroxypropylcellulose) (HPC)) was 100 % of control.
For O=S(=O)(N=N/C=C1\C=CC=CN1O)c1cccs1, the T/C [9] was 111 % of control, the T/C [4] was 103 % of control and the T/C [5] was 103 % of control. For the same molecule, the T/C [6] was 107 % of control.
For CCN(C)N=Nc1ccc(C(N)=O)cc1, the T/C [17] was 95 % of control, the T/C [16] was 104 % of control and the T/C [18] was 111 % of control. The T/C [11] was 122 % of control.
With CCOC(=O)c1[nH]c2cccc3c2c1CC(Br)C3=O (centres undefined) the T/C (dose: 12.0 mg/kg/injection, vehicle: saline with Tween-80) was 102 % of control, the T/C [4] was 100 % of control and the T/C [5] was 99 % of control.
In the case of CCCCCC[C@H]([C@H](C)O)n1cnc2c(N)ncnc21, the T/C (dose: 3.12 mg/kg/injection, vehicle: Klucel (hydroxypropylcellulose) (HPC)) was 88 % of control, the T/C [17] was 101 % of control and the T/C [16] was 114 % of control. For the same molecule, the T/C [18] was 94 % of control, the T/C [11] was 109 % of control and the T/C [12] was 105 % of control.
